From patent US20080182880A1, “PIOGLITAZONE COMPOSITION” (priority 2006, published 2008)
Like-named read-outs stand apart in the source and are kept apart here.

Experiment: Comparative bioavailability of Trial 2 of Example 4 and ACTOS tablets 45 mg, open label randomized cross-over single dose study, fasting, 55 subjects
Format: in vivo
Conditions: human, plasma, oral, calculated from Table 6 results, single dose to humans
Experimental: In determining bioequivalence, for example, between two products such as a commercially available product and a proposed product, pharmacokinetic studies are conducted whereby each of the preparations is administered in a crossover study to volunteer subjects. Serum plasma samples are obtained at regular intervals and assayed for parent drug (or occasionally metabolite) concentrations. For a pharmacokinetic comparison, the plasma concentration data are used to assess key pharmacokinetic parameters such as area under the plasma concentration-time curve (AUC), peak concentration (Cmax) and time to peak plasma concentration (Tmax).
R represents reference product, i.e., ACTOS tablets 45 mg.
Study design: Open label randomized cross-over single dose study under fasting conditions.

AUC(0-inf) (read-out: therapeutically equivalent range of plasma pioglitazone AUC0-∞): 12300 to 19100 ng·h/mL
AUC(0-inf) (read-out: therapeutically equivalent range of plasma pioglitazone AUC0-∞T): 11900 to 18500 ng·h/mL
Cmax (read-out: therapeutically equivalent range of plasma pioglitazone Cmax): 1030 to 1610 ng/mL
SMILES: CCc1ccc(CCOc2ccc(CC3SC(=O)NC3=O)cc2)nc1 (racemic) [Pioglitazone, (±)-5-[[4-[2-(5-ethyl-2-pyridinyl)ethoxy]phenyl]methyl]-2,4-]thiazolidinedione]
